Test results from patent US6551993B1, “Partial agonists at the glycine modulatory site of the NMDA receptor for treating cognitive dysfunction” (Thomas Jefferson University, priority 1999, dated 2003).
Entries after “also recorded” stand apart in the source; their conditions may differ.

Assays:
Type in all cases: in vivo, cynomolgus monkeys (Macaca fascicularis)
[1] = tested on: chronic low dose MPTP-treated monkeys; assay: spatial delayed response (DR) task
Description: (§1) Four adult male cynomolgus monkeys (Macaca fascicularis) weighing 5.0-8.0 kg at the beginning of testing were used. All animals had prior behavioral testing experience and had stable cognitive deficits as a result of prior MPTP administration. These animals had previously been used in other pharmacological studies (Schneider J S, Tinker J P, Van Velson M, Menzaghi F, Lloyd G K. Nicotinic acetylcholine receptor agonist SIB-1508Y improves cognitive functioning in chronic low dose MPTP-treated monkeys. J Pharmacol Exp Ther 290: In Press, 1999) but had received no drug treatments for at least 6 mos. prior to the start of this study. This study was approved by the Institutional Animal Care and Use Committee at Thomas Jefferson University and performed in accordance with the NIH Guide for the Care and Use of Laboratory Animals.
(§2) Three of the four animals were tested in a modified Wisconsin General Test Apparatus (WGTA) (Schneider and Kovelowski, 1990); one animal performed computer automated tasks while seated in front of a touch sensitive computer monitor located in a darkened sound-attenuated cubicle. All monkeys performed a spatial delayed response (DR) task, a variable delayed response task (VDR) and a visual discrimination (VD) task.
(§3) The monkeys that performed in the WGTA sat in a restraining chair situated in a sound-attenuating chamber with background masking noise, behind an opaque screen that when raised, allowed access to a sliding tray. The tray contained recessed food wells and identical sliding red Plexiglas covers that served as stimulus plaques that could be displaced by the animal to obtain rewards (raisins, dried fruit, marshmallows). The monkeys were trained to retrieve food from one of the wells after observing the experimenter bait a well. Right and left wells were baited in a balanced order. Each daily session consisted of 30 trials. For VDR testing, five different delay lengths (2, 5, 10, 20 and 30 secs.) were randomly distributed in blocks of trials over the 40 trials that made up a daily testing session. For VD testing, monkeys were trained to discriminate between two patterns (a cross and a horizontal bar) on otherwise identical Plexiglas covers. The position of the positive stimulus (cross) over the left or right food well varied pseudorandomly. The cover had to be displaced in order to retrieve reward from the recessed food well beneath the cover. A test session consisted of 30 trials. Animals were food deprived overnight prior to testing the next day.
(§4) The monkey that performed the computer automated tasks sat in a restraining chair situated in a sound-attenuating chamber with background masking noise, and faced a touch sensitive computer screen with a lever located beneath it. The animal initiated a DR or VDR trial by holding down the lever for one to three seconds. This caused the cue, a filled white circle one inch in diameter, to appear on the right or left side of the screen for two seconds. The cue was then extinguished for a delay period (five seconds for DR; 2, 5, 10, 20, and 30 secs. for VDR) and then identical left and right choice stimuli (filled red circles, one inch in diameter) were presented. The monkey was rewarded with a fruit flavored drink from an automatic dispenser if it touched the response light located on the same side as where the cue appeared. Side of cue presentation was counter-balanced and left/right rewards were distributed pseudorandomly over the 30 trials (40 trials for VDR) that made up a daily testing session. This animal was tested in the morning and fluid deprived overnight prior to testing.
(§5) Animals initially received low doses of MPTP for periods of up to 178 days until stable cognitive deficits (consistent performance deficits of at least 15% on DR) were observed (Schneider et al., 1999). These animals had not received any MPTP for at least 9 months prior to the start of this study. […]

[2] = tested on: chronic low dose MPTP-treated monkeys; assay: variable delayed response (VDR) task
Description: as §1, §2, §3, §4, §5

[3] = tested on: chronic low dose MPTP-treated monkeys; assay: visual discrimination (VD) task
Description: as §1, §2
as §3, with “A test session consisted of 30 trials. Animals were food deprived overnight prior to testing the next day.” left out
Animals initially received low doses of MPTP for periods of up to 178 days until stable cognitive deficits (consistent performance deficits of at least 15% on DR) were observed (Schneider et al., 1999). […] Drug effects were determined for D-cycloserine and MK-801 (Research Biochemicals International, Natick, M A) at doses of 100, 320, 1,000, and 8,000 μg/kg and 10, 20 or 32 μg/kg, respectively. […]

[4] = tested on: chronic low dose MPTP-treated monkeys; assay: motor functioning during visual discrimination testing

SMILES | DR performance ([1]; 100 μg/kg i.m., approx. 30 min before test, vs. saline) | DR performance ([1]; 320 μg/kg i.m., approx. 30 min before test, vs. saline (t=6.73, p<0.01)) | DR performance ([1]; 1,000 μg/kg i.m., approx. 30 min before test, vs. saline (t=3.76, p<0.05)) | DR performance ([1]; 8,000 μg/kg i.m., approx. 30 min before test, vs. saline) | MPTP-induced DR performance deficit ([1]; dose response 100 to 1000 μg/kg i.m., 4 animals, FIG. 1A) | VDR performance ([2]; 100 μg/kg i.m., all delays (2, 5, 10, 20, 30 sec)) | VDR performance ([2]; 320 μg/kg i.m., at 2, 5, and 20 sec. delays) | VDR performance ([2]; 1,000 μg/kg i.m., at 2, 5, and 10 sec delays) | VDR performance ([2]; 8,000 μg/kg i.m.) | VDR performance ([2]; 30 sec. delay, any dose) | VDR performance ([2]; best (most facilitating) dose for each animal vs. saline, FIG. 1B) | VD performance ([3]; 8,000 μg/kg i.m., all animals, p<0.01 vs. saline, FIG. 2) | VD performance ([3]; 100 to 1,000 μg/kg i.m.) | deficits in VD performance ([3]; low doses (10, 32 or 100 μg/kg)) | motor functioning ([4]; 8,000 μg/kg i.m.) | DR performance ([1]; 10-32 μg/kg i.m., vs. saline) | VD performance ([3]; 10-32 μg/kg i.m., all animals, p<0.01 vs. saline, FIG. 2) | motor functioning ([4]; 10-32 μg/kg i.m.)
N[C@@H]1CONC1=O [D-cycloserine] | Neither the low (100 μg/kg) nor high (8,000 μg/kg) doses of D-cycloserine had any effect | significantly improving task performance | significantly improving task performance | Neither the low (100 μg/kg) nor high (8,000 μg/kg) doses of D-cycloserine had any effect; also recorded: neither improvement nor further disruption | at least partially corrected | had no effects | significantly improved performance | significantly improved performance | neither improvement nor further disruption | None of the doses of D-cycloserine improved performance | significantly improved performance at all but the longest delay | significantly disrupted; also recorded: significantly impaired; also recorded: deficits induced in VD performance | had no effects | not with low doses | did not significantly impair motor functioning |  |  | 
C[C@]12N[C@H](Cc3ccccc31)c1ccccc12 [MK-801] |  |  |  |  |  |  |  |  |  |  |  |  |  |  |  | had no effects | significantly disrupted; also recorded: significant impairment | did not significantly impair motor functioning
